Assay results taken from patent publication US20220380341A1, “INHIBITORS OF HIV-1 NEF FOR THE TREATMENT OF HIV DISEASE” (priority 2018, published 2022).
Where two headings read alike, the source gives them in different places.

Key:
[1] = system: TZM-bl cell line; format: cell-based; conditions: for % Cell Viability: 1.0 μM, uninfected TZM-bl, CellTiter-Blue, Table 4
Procedure: (§1) In particular, the tables show antiretroviral activity as percent inhibition of HIV-1 infectivity at 1 μM. In brief, this assay uses the TZM-bl reporter cell line, which carries a stable copy of the HIV-1 LTR coupled to luciferase. Cells are infected with HIV-1NL4-3 in the presence and absence of each compound, and luciferase activity is measured 48 h later. This assay measures early events in the HIV-1 life cycle, including viral entry, reverse transcription, nuclear entry and integration, and viral transcription. All assays include control cells infected with Nef-defective HIV-1, which replicates at 30-50% of wild-type in this system. Results are normalized to percent inhibition relative to DMSO-treated control cells infected with wild-type HIV-1 (0% inhibition) and DMSO-treated cells infected with Nef-defective HIV-1 (100% of the Nef-dependent effect)—see column 3. In addition, cell viability is measured in the TZM-bl cell line in the presence of each test compound and in the absence of HIV-1 infection, using the Cell Titer Blue cell viability assay (Promega; column 4).

[2] = molecular target: HIV-1 NefNL4-3 (Human immunodeficiency virus type 1 group M subtype B, UniProt P03406, A33V/T15A/T51N/V11I); assay: Surface plasmon resonance binding to recombinant full-length Nef (NL4-3); conditions: for Nef NL4-3 Binding, SPR 1:1 or 2-site fitting KD1: 1:1 Langmuir fit where the KD2 cell says '1 to 1 fitting', else 2-site fit
[3] = system: HIV-1NL4-3; assay: HIV-1 infectivity assay in TZM-bl reporter cell line (LTR-luciferase, 48 h); format: cell-based; conditions: Human immunodeficiency virus 1, TZM-bl, 48 h, Table 1; TZM-bl cells, 1 μM, 48 h; 100% = Nef-defective HIV-1; read-out: HIV-1 Infectivity % Inhibition Norm. to Δ-Nef @ 1 μM
Procedure: as §1

[4] = Table 2, uninfected TZM-bl cells, 1 μM, Cell Titer Blue
[5] = read-out: Nef NL4-3 Binding, SPR 1:1 or 2-site fitting KD1

CS(=O)(=O)c1ccc(-c2nn(-c3cc(C4CC4)n[nH]3)c(O)c2CCC2CCOCC2)cc1 [Compound I-607]
Percent Viability @ 1 μM (TZM-bl cells) [1]: 100.0%

CCOC(=O)c1ccc(CCc2c(-c3ccccc3)nn(-c3cc(C(F)(F)F)n[nH]3)c2O)cc1 [Compound I-612]
% Cell Viability [1]: 100% | Percent Viability @ 1 μM (TZM-bl cells) [1, 4]: 100.7%

Oc1c(CCc2ccncc2)c(-c2ccc(F)cc2)nn1-c1cc(C(F)(F)F)n[nH]1 [Compound I-620]
Percent Viability @ 1 μM (TZM-bl cells) [1]: 100.0%

CC(=O)N1CCC(c2nn(-c3nc4ccccc4[nH]3)c(O)c2CCc2ccc(F)cc2)CC1 [Compound I-741, 1-{4-[1-(1H-1,3-benzodiazol-2-yl)-4-[2-(4-fluorophenyl)ethyl]-5-hydroxy-1H-pyrazol-3-yl]piperidin-1-yl}ethan-1-one]
Kd [2]: 3260 nM | Kd ([2]; read-out: Nef NL4-3 Binding, SPR 1:1 or 2-site fitting KD2, Table 1, 2-site fit, second component): 10600 nM

CS(=O)(=O)N1CCC(c2nn(-c3nc4ccccc4[nH]3)c(O)c2CCc2ccc(F)cc2)CC1 [Compound I-743, 1-(1H-1,3-benzodiazol-2-yl)-4-[2-(4-fluorophenyl)ethyl]-3-(1-methanesulfonylpiperidin-4-yl)-1H-pyrazol-5-ol]
Nef NL4-3 Binding, SPR 1:1 or 2-site fitting KD1 ([2]; Table 1): No Interaction

O=S(=O)(c1c(Cl)nc2sccn12)N1CCC(c2nn(-c3nc4ccccc4[nH]3)c(O)c2CCc2ccc(F)cc2)CC1 [Compound I-752, 1-(1H-1,3-benzodiazol-2-yl)-3-[1-({6-chloroimidazo[2,1-b][1,3]thiazol-5-yl}sulfonyl)piperidin-4-yl]-4-[2-(4-fluorophenyl)ethyl]-1H-pyrazol-5-ol]
inhibition at 1 µM [3]: 14.7% | Percent Viability @ 1 μM (TZM-bl cells) ([1]; human, 1 μM): 97.7%

CC(C)(C)OC(=O)N1CCCC(c2nn(-c3nc4ccccc4[nH]3)c(O)c2CCc2ccc(F)cc2)C1 (centres unmarked) [Compound I-755, tert-butyl 3-[1-(1H-1,3-benzodiazol-2-yl)-4-[2-(4-fluorophenyl)ethyl]-5-hydroxy-1H-pyrazol-3-yl]piperidine-1-carboxylate]
Kd ([2]; Table 1, 2-step induced-fit model, read-out: Nef NL4-3 Binding, SPR 2-state fitting KD): 296 nM | Kd [2, 5]: 52.7 nM

CN1CCC(c2nn(-c3nc4ccccc4[nH]3)c(O)c2CCc2ccc(F)cc2)CC1 [Compound I-801, 1-(1H-1,3-benzodiazol-2-yl)-4-[2-(4-fluorophenyl)ethyl]-3-(1-methylpiperidin-4-yl)-1H-pyrazol-5-ol]
Nef NL4-3 Binding, SPR 1:1 or 2-site fitting KD1 ([2]; Table 1): No Interaction

Oc1c(CCc2ccc(F)cc2)c(C2CCN(c3ncccn3)CC2)nn1-c1nc2ccccc2[nH]1 [Compound I-903, 1-(1H-1,3-benzodiazol-2-yl)-4-[2-(4-fluorophenyl)ethyl]-3-[1-(pyrimidin-2-yl)piperidin-4-yl]-1H-pyrazol-5-ol]
Kd [2, 5]: 9980 nM

Oc1c(Cc2ccc(F)c(F)c2)c(C2CCN(CC(F)(F)F)CC2)nn1-c1nc2ccccc2[nH]1 [Compound I-1001, 1-(1H-1,3-benzodiazol-2-yl)-4-[(3,4-difluorophenyl)methyl]-3-[1-(2,2,2-trifluoroethyl)piperidin-4-yl]-1H-pyrazol-5-ol]
Kd ([2]; Table 1, 2-site fit, second component, read-out: Nef NL4-3 Binding, SPR 1:1 or 2-site fitting KD2): 500 nM | Kd [2, 5]: 257 nM

Fc1ccc(-c2c(CCc3ccccc3)cnn2-c2cc(C(F)(F)F)n[nH]2)cc1 [Compound I-1501]
% Cell Viability [1]: 97.9%

Fc1ccc(-c2nn(-c3cc(C(F)(F)F)n[nH]3)cc2CCc2ccccc2)cc1 [Compound I-1501]
Percent Viability @ 1 μM (TZM-bl cells) [1, 4]: 102.5%
